Reference: ChEMBL document CHEMBL1201862, “PubChem BioAssay data set” (2004)
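96-well plates; 48 h exposure; 5 concentrations. Endpoints by linear interpolation between flanking doses. Not reached: highest tested concentration assigned. GI50: concentration for 50% inhibition of growth.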 The source made the active and inactive calls. Rule as the data show it: active = GI50 up to about 1.1 µM and inactive = higher.

Legend:
Assay in all cases: inhibition of tumour cell growth, NCI panel, 48 h
[1] = test system: SNB-19
[2] = test system: OVCAR-5
[3] = test system: RPMI-8226
[4] = test system: SW-620
[5] = test system: A549
[6] = test system: COLO 205
[7] = test system: HOP-62
[8] = test system: CCRF-CEM
[9] = test system: UACC-257
[10] = test system: MCF7
[11] = test system: NCI-H23
[12] = test system: T47D
[13] = test system: MDA-N
[14] = test system: DU-145
[15] = test system: HCT-116
[16] = test system: SF-295
[17] = test system: SN12C
[18] = test system: PC-3
[19] = test system: IGROV-1

## Cc1cc(O)c2cc3c(O)c(O)ccc3cc2c1
[1]
  GI50: 0.615 µM (active)
[2]
  GI50: 3.17 µM (inactive)
[3]
  GI50: 0.326 µM (active)
[4]
  GI50: 0.53 µM (active)
[5]
  GI50: 1.14 µM (inactive)
[6]
  GI50: 0.351 µM (active)
[7]
  GI50: 1.29 µM (inactive)
[8]
  GI50: 1.27 µM (inactive)
[9]
  GI50: 3.2 µM (inactive)
[10]
  GI50: 2.27 µM (inactive)
[11]
  GI50: 1.24 µM (inactive)
[12]
  GI50: 1.75 µM (inactive)
[13]
  GI50: 2.18 µM (inactive)
[14]
  GI50: 3.91 µM (inactive)
[15]
  GI50: 0.494 µM (active)
[16]
  GI50: 0.619 µM (active)
[17]
  GI50: 2.46 µM (inactive)
[18]
  GI50: 0.302 µM (active)
[19]
  GI50: 1.51 µM (inactive)

## COC(=O)c1c(CC(Cc2ccc3c(c2)CCCC3)C(=O)OC)ccc2c1CCCC2 (stereo not drawn)
[1]
  GI50: > 100 µM (inactive)
[2]
  GI50: > 100 µM (inactive)
[3]
  GI50: 24.9 µM (inactive)
[4]
  GI50: > 100 µM (inactive)
[5]
  GI50: 37 µM (inactive)
[6]
  GI50: 19.9 µM (inactive)
[7]
  GI50: > 100 µM (inactive)
[8]
  GI50: 35.4 µM (inactive)
[9]
  GI50: 24 µM (inactive)
[10]
  GI50: 20.6 µM (inactive)
[11]
  GI50: 69.5 µM (inactive)
[12]
  GI50: 35.8 µM (inactive)
[13]
  GI50: 77.1 µM (inactive)
[14]
  GI50: > 100 µM (inactive)
[15]
  GI50: 72.8 µM (inactive)
[16]
  GI50: > 100 µM (inactive)
[17]
  GI50: > 100 µM (inactive)
[18]
  GI50: 38.7 µM (inactive)
[19]
  GI50: > 100 µM (inactive)

## CC(C)(C)c1cc(C2COC(=O)COCC(=O)OCCOCCOCCO2)cc(C(C)(C)C)c1O (stereo not drawn)
[1]
  GI50: > 100 µM (inactive)
[2]
  GI50: 28.4 µM (inactive)
[3]
  GI50: > 100 µM (inactive)
[4]
  GI50: > 65.8 µM (inactive)
[5]
  GI50: > 31.6 µM (inactive)
[6]
  GI50: > 100 µM (inactive)
[7]
  GI50: 46.7 µM (inactive)
[8]
  GI50: > 100 µM (inactive)
[9]
  GI50: > 61.7 µM (inactive)
[10]
  GI50: > 100 µM (inactive)
[11]
  GI50: > 77.6 µM (inactive)
[12]
  GI50: > 100 µM (inactive)
[13]
  GI50: 19.6 µM (inactive)
[14]
  GI50: 21 µM (inactive)
[15]
  GI50: > 100 µM (inactive)
[16]
  GI50: 23.6 µM (inactive)
[17]
  GI50: 14.4 µM (inactive)
[18]
  GI50: 40.2 µM (inactive)
[19]
  GI50: > 100 µM (inactive)

## Clc1ccc(/C=C/c2nc3ccccc3s2)cc1Cl
[1]
  GI50: 30.5 µM (inactive)
[2]
  GI50: 80.7 µM (inactive)
[3]
  GI50: 41.7 µM (inactive)
[4]
  GI50: 1.73 µM (inactive)
[5]
  GI50: 57.8 µM (inactive)
[6]
  GI50: 54.1 µM (inactive)
[7]
  GI50: 22.9 µM (inactive)
[8]
  GI50: > 100 µM (inactive)
[9]
  GI50: > 100 µM (inactive)
[10]
  GI50: 15.1 µM (inactive)
[11]
  GI50: 94 µM (inactive)
[12]
  GI50: 1.66 µM (inactive)
[13]
  GI50: 70.5 µM (inactive)
[14]
  GI50: > 100 µM (inactive)
[15]
  GI50: 19.5 µM (inactive)
[16]
  GI50: 28.1 µM (inactive)
[17]
  GI50: > 100 µM (inactive)
[18]
  GI50: 1.69 µM (inactive)
[19]
  GI50: 16.9 µM (inactive)

## C[N+](C)(C)CC1Cc2ccccc2C1=O (stereo not drawn)
[1]
  GI50: > 10 µM (inactive)
[2]
  GI50: > 10 µM (inactive)
[3]
  GI50: 1.48 µM (inactive)
[4]
  GI50: 1.87 µM (inactive)
[5]
  GI50: > 10 µM (inactive)
[6]
  GI50: 2.93 µM (inactive)
[7]
  GI50: > 10 µM (inactive)
[8]
  GI50: 1.66 µM (inactive)
[9]
  GI50: > 10 µM (inactive)
[10]
  GI50: 2.07 µM (inactive)
[11]
  GI50: > 10 µM (inactive)
[12]
  GI50: 2.51 µM (inactive)
[13]
  GI50: 3.72 µM (inactive)
[14]
  GI50: > 10 µM (inactive)
[15]
  GI50: 1.72 µM (inactive)
[16]
  GI50: > 10 µM (inactive)
[17]
  GI50: > 7.45 µM (inactive)
[18]
  GI50: > 10 µM (inactive)
[19]
  GI50: > 10 µM (inactive)

## CC(C)(C)N1CC1CNC(=O)C(=O)NCC1CN1C(C)(C)C (stereo not drawn)
[1]
  GI50: 13.7 µM (inactive)
[2]
  GI50: 2.62 µM (inactive)
[3]
  GI50: 5.86 µM (inactive)
[4]
  GI50: 3.08 µM (inactive)
[5]
  GI50: 3.93 µM (inactive)
[6]
  GI50: 3.79 µM (inactive)
[7]
  GI50: 1.31 µM (inactive)
[8]
  GI50: 0.665 µM (active)
[9]
  GI50: 5.05 µM (inactive)
[10]
  GI50: 9.31 µM (inactive)
[11]
  GI50: 2.74 µM (inactive)
[12]
  GI50: 22.2 µM (inactive)
[13]
  GI50: 25.8 µM (inactive)
[14]
  GI50: 7.62 µM (inactive)
[15]
  GI50: 3.97 µM (inactive)
[16]
  GI50: 3.33 µM (inactive)
[17]
  GI50: 2.33 µM (inactive)
[18]
  GI50: 14.9 µM (inactive)
[19]
  GI50: 5.83 µM (inactive)

## [O-][S@@+]1c2ccc3ccccc3c2N[C@@H]2[C@H]1[C@H]1C=C[C@@H]2C1
[1]
  GI50: > 100 µM (inactive)
[2]
  GI50: > 100 µM (inactive)
[3]
  GI50: 31.6 µM (inactive)
[4]
  GI50: 34 µM (inactive)
[5]
  GI50: 57.5 µM (inactive)
[6]
  GI50: 46.6 µM (inactive)
[7]
  GI50: 59.4 µM (inactive)
[8]
  GI50: 23.6 µM (inactive)
[9]
  GI50: 56.6 µM (inactive)
[10]
  GI50: 26.1 µM (inactive)
[11]
  GI50: 35.3 µM (inactive)
[12]
  GI50: 16.5 µM (inactive)
[13]
  GI50: 20.8 µM (inactive)
[14]
  GI50: 46.9 µM (inactive)
[15]
  GI50: 39.5 µM (inactive)
[16]
  GI50: 40.5 µM (inactive)
[17]
  GI50: 53.7 µM (inactive)
[18]
  GI50: 32.4 µM (inactive)
[19]
  GI50: 21.2 µM (inactive)
